What was measured:
[1] = biological target: T1, human recombinant CYP2B6 (Homo sapiens, UniProt P20813); experiment: CYP phenotyping panel (PTX 251D clearance); type: in vitro ADME; conditions: 1E-07 M PTX 251D; after 60 minutes
T1 construct: Eurofins Discovery Services (Eurofins Panlabs Inc) ran the assay
T1 sequence (P20813 1-491): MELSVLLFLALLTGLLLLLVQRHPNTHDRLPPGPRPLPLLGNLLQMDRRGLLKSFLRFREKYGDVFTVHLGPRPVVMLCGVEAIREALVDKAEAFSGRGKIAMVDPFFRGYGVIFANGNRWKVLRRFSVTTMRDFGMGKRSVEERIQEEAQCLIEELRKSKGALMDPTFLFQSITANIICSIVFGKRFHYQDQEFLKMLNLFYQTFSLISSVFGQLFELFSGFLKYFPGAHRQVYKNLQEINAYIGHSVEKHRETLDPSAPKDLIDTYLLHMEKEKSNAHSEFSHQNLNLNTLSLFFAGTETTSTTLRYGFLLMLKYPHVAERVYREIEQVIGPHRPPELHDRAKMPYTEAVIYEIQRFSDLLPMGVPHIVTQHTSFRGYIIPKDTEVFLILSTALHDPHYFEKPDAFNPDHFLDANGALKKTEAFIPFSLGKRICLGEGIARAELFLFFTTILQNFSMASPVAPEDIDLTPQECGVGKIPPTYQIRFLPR
Description: Assays for human CYP activity (CYP phenotyping), CYP2D6 metabolite discovery (metID), ion channel inhibition (CiPA), and G-protein coupled receptor (GPCR) activity (gpcrMAX) were performed through Eurofins Discovery Services (Eurofins Panlabs Inc, St. Charles MO, USA). In the CYP phenotyping panel, human recombinant CYP1A2, CYP2B6, CYP2C8, CYP2C9, CYP2C19, CYP2D6, and CYP3A4 were included in the assay. A concentration of 1E-07 M of PTX 251D was tested, and the percent compound remaining was quantified at 0, 15, 30, 45, and 60 minutes using HPLC-MS/MS. As a positive control, a reference compound was used for each CYP tested (see S1 File for results). In the CYP2D6 metabolism assay, human recombinant CYP2D6 was incubated with an initial concentration of 10 μM and metabolites were quantified after 90 minutes using LC-MS/MS. Two replicates were used for the CYP phenotyping panel and one replicate was used for CYP2D6 metabolite assay. The CiPA assay was a cell-based QPatch on voltage-gated sodium channel NaV1.5 (peak and late/agonist), voltage-gated potassium channels Kv4.3/KChIP2, hERG, KCNQ1/minK, Kir2.1, and voltage-gated calcium channel Cav1.2. The concentrations of PTX 251D assayed were 3, 10, and 30 μM, and a reference compound for each channel was used (see S1 File for results and individual QPatch parameters). In the gpcrMAX assay a panel of 165 GPCRs was tested through the DiscoverX PathHunter beta-arrestin enzyme fragment complementation technology, and a concentration of 10 μM PTX 251D was tested for both agonist and antagonist activity along with a reference compound for each GPCR (see S1 File for results).

[2] = system: gene expression in intestines, liver, and skin; experiment: RNA sequencing, differential gene expression after PTX 251D feeding; type: in vivo, Dendrobates tinctorius
Description: Lab-reared (non-toxic) Dendrobates tinctorius were housed in terraria with live plants, a water pool, and a shelter. Ten adult females were size-matched, randomly assigned to control or experimental groups (N = 5 per group), and then housed individually. To measure the specific effects of PTX 251D compared to a background toxicity, the control group was fed 0.01% DHQ (Sigma-Aldrich, St. Louis, USA) in a solution of 1% EtOH and the experimental group was fed a solution of 0.01% DHQ and 0.01% PTX 251D (PepTech, Burlington, MA, USA) in a solution of 1% EtOH in water. Each frog was fed 15 μL each day for five days by pipetting the solution directly into the mouth between 10am-12pm. […]
RNA extraction followed the Trizol (Thermo Fisher Scientific, Waltham, MA, USA) protocol outlined in Caty et al. 2019 [16] and according to the manufacturer’s instructions. […] Libraries were quantified with quantitative PCR (NEBnext Library quantification kit, New England Biolabs, Ipswich, USA) and a Agilent Bioanalyzer High Sensitivity DNA chip, both according to manufacturer’s instructions. All libraries were pooled at equimolar amounts and were sequenced on four lanes of an Illumina HiSeq 4000 machine to obtain 150 bp paired-end reads. […]

SMILES: CCCCC(C)C=C1CN2CCCC2C(C)(O)C1 (stereo not drawn) [PTX 251D, pumiliotoxin (PTX 251D)]
- clearance of PTX 251D by CYP2B6 [1]: minimal clearance
- expression of CYP2D6-like contig ([2]; intestines of frogs fed PTX 251D): upregulated
- CYP3A29 expression log2FC ([2]; intestines, DHQ+PTX vs DHQ): 5.72

From paper PMC8916643, “Molecular physiology of pumiliotoxin sequestration in a poison frog” (PLoS ONE, 2022)
